Measured values: ChEMBL document CHEMBL5727813, “Inhibitors of lysine gingipain” (2020)

Test: Inhibition of Lysine Gingipain: The capacities of compounds of the present invention to inhibit the activity of lysine gingipain were measured in a fluorogenic assay similar to those described in Barret Biochemical Journal. 1980, 187(3), 909. The specific assay conditions were as follows. Buffer: pH=7.5, 100 mM Tris-HCl, 75 mM NaCl, 2.5 mM CaCl2, 10 mM cysteine, 1% DMSO after all additions. Protein: 0.1 nM Kgp, isolated from culture of Porphyromonas gingivalis, as described in Pike et al. J. Biol. Chem. 1994, 269(1), 406, and Potempa and Nguyen. Current Protocols in Protein Scienc. 2007, 21.20.1-21.20.27. Fluorogenic substrate: 10 uM Z-His-Glu-Lys-MCA. Time=90 minutes. Temperature=37° C. Each compound: 10 concentrations, starting at either 100 uM or 100 nM, with lower concentrations generated by serial 3-fold dilutions. By testing a range of concentrations for each compound, the concentration required to inhibit the activity of lysine gingipain by 50% (the “IC50”) was determined. Under the described assay conditions, signal-to-noise was excellent, and Z factor was greater than 0.6.

In the case of `NCCCC[C@H](NC(=O)C1CCCC1)C(=O)c1ccccn1`, the IC50 is reported as greater than 250 nM.
